Read-outs that look alike come from different tables or passages of the source.

Series [1] concerns permeabilised HepG2 cells. In words: Calcium retention capacity (CRC) assay in permeabilised HepG2 cells (MPTP opening). The arrangement: CRC [10 μM]: unit not given here. It counts as cell-based, human. Conditions: compound at 10 μM. The method in brief: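 Digitonin-permeabilised HepG2 cells received trains of calcium pulses (typically 5 μM) monitored with Calcium Green-5N until buffering failed, marking permeability transition. Runs with and without compound; calcium retained at 10 μM compound expressed as ratio versus cyclosporin A positive control.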

The test system of the next series is pancreatic acinar cells. The series is described as follows: Protection of pancreatic acinar cells against TLCS toxicity (propidium iodide uptake, FIG. 1). It is filed as cell-based. The conditions noted are these: propidium iodide uptake as measure of necrotic cells. From the text: FIG. 1 propidium iodide (PI) up-take as a measure of the number of dead pancreatic acinar cells (through necrosis) as a percentage against a number of treatments with Compound (2) and cyclosporin A and controls in an in-vitro model based on pancreatic acinar cells against the toxicity of the bile acid taurolithocholic acid-3-sulphate (TLCS);
WO 2021/115299 (Zuo) discloses compounds that protect against acute kidney injury caused by many different causes. The same compounds are disclosed in U.S. Pat. No. 6,583,265 (C-Chem AG) as cyclophilin inhibitors. There is no enzyme inhibiting, receptor binding or ion channel activity known for these compounds other than inhibition of cyclophilins. It can therefore be concluded that the compounds of the present invention, which are potent cyclophilin inhibitors but have no activity on other enzymes or receptors, have the same spectrum of properties.
FIG. 1 illustrates two sets of results.

Series [2] can be described thus: Blood-brain barrier penetration, intravenous dosing. It is filed as in vivo, rodents (mice or rats). Conditions: 3 mg/kg intravenous. As to the method: Test compounds were administered to rodents (mice or rats) either orally, subcutaneously or intravenously. To determine blood or plasma concentrations blood samples were taken at different time points and analysed for the concentration of test compound by LC/MS. Brain concentrations were measured by sacrificing animals and LC/MS analysis of brain homogenate.
The results for Compounds (2), (19), (6) and (27) are summarised in Table 6 showing concentrations of the Compounds in blood plasma and the brain.

For series [3], the system named is animal models of acute pancreatitis. The conditions noted are these: Mukherjee et al., Gut Online, 12 Jun. 2015; cited from earlier work.

Turning to `CC(C)[C@@H]1OC(=O)C(C)(C)/C=C/c2ccc3ccc(nc3c2)N(C)NC(=O)[C@@H]2CCCN(N2)C(=O)[C@H](C)NC1=O` [Compound (2)], the “CRC [10 μM]” value in series [1] (digitonin permeabilised HepG2 cells) is 26. Besides, in series [1] (normalised to cyclosporin A, value in brackets), the “CRC [10 μM] (ratio vs CsA)” value is recorded as 0.9875. In addition, the “Protection of pancreatic acinar cells against toxicity of TLCS” value in the series with pancreatic acinar cells is given as “protect pancreatic acinar cells against the toxicity”. The Blood-brain barrier passage result in series [2] is “passed the blood-brain barrier”. For the same compound, the concentration at 30 min in series [2] (brain, read-out: Brain concentration) turned out to be 170 ng/mL; in series [2] (plasma, read-out: Plasma concentration) it was 222 ng/mL. For the same compound, the “Protection in animal models of acute pancreatitis” value in series [3] was “protective”.

(Values after patent publication US20250243219A1, “MACROCYCLIC COMPOUNDS AND USES THEREOF” (Cypralis Limited, priority 2022, published 2025).)
